Results from patent US20110217293A1, “Uses of morelloflavone” (priority 2008, published 2011).
“Also recorded” adds a separate entry of the source.

Experiments:
[1] = test system: RhoA; experiment: GTPase activation assay, RhoA; assay type: cell-based, mouse; settings: 0.1 mM; low concentrations 0.1 & 1 mM
Method: (§1) To assess the phosphorlyation status of ERK, […] of whole cell lysates was loaded onto SDS-PAGE, and Western blot analysis was done using anti-p-ERK (Santa Cruz; E-4; sc-7383) and anti-ERK (Santa Cruz; K-23; sc-94) antibodies. To detect active RhoA, Rac1 and Cdc42, generated GST-tagged RhoA binding domain of Rhotekin protein (GST-Rhotekin-RBD) and GST-tagged p21-binding domain of p21-activated kinase 1 (PAK1)(GST-PAK1-PBD) were first generated. Briefly, E. coli BL21 cells transformed with pGEX4T-PAK1-PBD or pGEX4T-Rh,otekin-RBD were grown at 37° C. and expression of recombinant protein was induced by addition of 0.1 mM IPTG for 3 hours. Cells were resuspended in lysis buffer (50 mM Tris-HCl, pH 8.0, 10% glycerol, 20% sucrose, 2 mM DTT, 1 mg/ml leupeptin, 1 mg/ml pepstatin, and 1 mg/ml aprotinin), sonicated, and centrifuged at 4° C. for 30 min at 45,000 g. The supernatant was incubated with glutathione sepharose 4B beads (GE-Amersham, Piscataway, N.J.) for 1 hour at 4° C., and then washed 3 times in lysis buffer. Using these GST-proteins, GTPase activation assays were performed as described. […]

[2] = biological target: T1, sPLA2-IIA (Homo sapiens, UniProt P14555); experiment: sPLA2 enzyme activity assay, Group IIA; assay type: biochemical; settings: recombinant human sPLA2-IIA, data not shown
T1 sequence (P14555 21-144): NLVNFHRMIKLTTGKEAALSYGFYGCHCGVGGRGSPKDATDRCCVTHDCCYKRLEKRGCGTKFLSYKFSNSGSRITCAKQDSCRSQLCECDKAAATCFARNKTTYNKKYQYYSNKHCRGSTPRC
Method: Recombinant human sPLA2 isoforms, Group IB, Group IIA, Group V, and Lp-PLA2 were obtained from R&D Systems and Cayman Chemical Co. sPLA2 enzyme activities in the presence of various concentrations of morelloflavone or other inhibitors were determined using a commercially available assay system according to the manufacturer's instructions (Cayman Chemical Co.). Thioetheramide-1-palmitylthio-2-palmitoylamido-1,2-dideoxy-sn-glycero-3-phosphorylcholine (T-PC) and methyl arachidonyl fluorophosphonate (MAFP) were used as inhibitors of sPLA2 (IB, IIA, and V) and Lp-PLA2, respectively, per manufacturers' instructions.

[3] = Analysis of lipids; assay type: in vivo, mouse; settings: Ldlr−/−Apobec1−/− mice, morelloflavone diet 8 months
Method: Plasma levels of triglycerides, total cholesterol, phospholipids, and non-esterified fatty acids of control and morelloflavone-treated animals were measured and using commercially available kits according to manufacturer's instruction (Randox Laboratories, Crumlin, UK; Thermo Fisher Scientific, Waltham, Mass.; Wako Chemicals, Richmond, Va.).

[4] = test system: Rac1; experiment: GTPase activation assay, Rac1; assay type: cell-based, mouse; settings: up to 10 mM
Method: as §1

## O=C1c2c(O)cc(O)cc2O[C@H](c2ccc(O)cc2)[C@H]1c1c(O)cc(O)c2c(=O)cc(-c3ccc(O)c(O)c3)oc12 [morelloflavone, 5,7, 4′, 5″, 7″, 3″, 4″-heptahydroxy-[3,8″]-flavonylflavanone]
[1]
  activation of RhoA: inhibited; also recorded: blocks the activation
[2]
  IC50: > 10 µM
[3]
  change in serum phospholipid concentration: no changes
  non-esterified fatty acid levels: 0.89±0.13
  serum cholesterol: 507.2 ± 95.8 mg/dL
  serum triglycerides: 179.9±28.0
[4]
  activation of Rac1: no significant effect; also recorded: without affecting
